Measurements as given in patent US5541232A, “Treatment of multidrug resistant diseases” (Chemex Pharmaceuticals, Inc., priority 1994, dated 1996).
“Also recorded” adds a separate entry of the source. Read-outs that look alike come from different tables or passages of the source.

Key:
[1] = system: normal cells; test: toxicity to normal cells as opposed to cancer cells; assay type: cell-based
[2] = system: GRC-1 multidrug resistant human cervical carcinoma cells; test: inhibition of colony formation, GRC-1; assay type: cell-based; conditions: Homo sapiens, 240 h, read-out: IC50 (Masoprocol), 50% inhibition of colony formation; 10 days, 37° C.; parenthesis: standard deviation
Source text: To investigate whether masoprocol modulates multidrug resistance, a line of multidrug resistant (GRC-1) cells which were derived from parenteral drug sensitive human cervical carcinoma (KB-3-1) cells by transfection of the mdr1 genes were employed. Such transfection was by the method set forth in Choi, et al., Cell 53:519-529, 1989. These cell lines differ only with respect to the over-expression of P-glycoprotein. These tests were designed to examine whether masoprocol modulates tumor cell drug resistance by interfering with P-glycoprotein function. […] See, Regulation of initial vinblastine influx by P-glycoprotein, Shalinsky, et al., cited above.
Masoprocol was provided by Chemex Pharmaceuticals, Inc. (Fort Lee, N.J.). Tritiated vinblastine ([^3 H]VBL) (10 Ci mmol^-1) was purchased from Moravek Biochemicals (Brea, Calif.), stored in the dark at -80° C. and protected from light during the experiments. Dipyridamole (DPM) was provided by Boerhinger Ingelheim Pharmaceuticals, Inc. (Ridgefield, Conn.).
(§1) Drug-sensitive KB-3-1 cells and the drug resistant subline (KB-GRC-1) were obtained from Dr. Igor Roninson (University of Illinois, College of Medicine, Chicago, Ill.). Cells were maintained in Dulbecco's modified Eagle's medium supplemented with 10% fetal bovine serum and 2 mM glutamine. The KB-GRC-1 cells were maintained in medium supplemented with 6 ng/ml colchicine.
First, cells which had been seeded at 200-300 cells/dish were incubated in media containing masoprocol or VBL. After an incubation period of 10 days at 37° C. the cells were fixed with methanol and stained with Giemsa, and the number of colonies per dish were counted and expressed as a percent of the number of colonies in control conditions. […] Parenthesis indicate standard deviations determined from replicate experiments.

[3] = system: CAK-1 Renal cancer cells; test: in vitro cytotoxicity anti tumor activity; assay type: cell-based; conditions: read-out: IC50
[4] = system: GRC-1 multidrug resistant human cervical carcinoma cells; test: modulation of VBL toxicity (colony formation), GRC-1; assay type: cell-based; conditions: 25 μM masoprocol, 10 days, 37° C.
Description: as §1
To test the modulation of VBL toxicity by masoprocol, cells which had been seeded at 200-300 cells/dish were incubated in media containing various concentrations of VBL in the absence or presence of 25 μM masoprocol. After an incubation period of 10 days at 37° C. the cells were fixed and stained, and the number of colonies per dish were counted and expressed as a percent of the number of colonies formed in control conditions. 1.

[5] = system: GRC-1 multidrug resistant human cervical carcinoma cells; test: steady state accumulation of VBL, GRC-1; assay type: cell-based
Description: At the desired time, the medium was aspirated and cells washed 5 times with ice cold PBS. Cells were digested overnight in 1N NaOH, at which time aliquots were used to determine protein content and radioactivity. The final concentration of VBL was 6 nM.
Cells were incubated for one hour with media containing either tritiated vinblastine (^3 H]VBL) alone or containing [^3 H]VBL with 50 μM masoprocol. Cells were then washed with ice cold PBS and the amount of VBL accumulated in cells was determined using a scintillation counter. In FIG. 1 each data point represents the mean of replicate experiments performed with duplicate cultures. Vertical bars are +/- S.D.

[6] = system: GRC-1 multidrug resistant human cervical carcinoma cells; test: efflux of VBL, GRC-1; assay type: cell-based; conditions: 50 μM masoprocol
Description: A further test was conducted to show the effect of masoprocol on the efflux of VBL from cells. Cells were incubated with [^3 H]VBL with or without 50 μM masoprocol for 2 hours. The medium was then replaced with drug-free medium. After incubation for various times, the amount of VBL remaining in the cells was determined as described above. The data was presented in terms of the percentage of VBL remaining at various efflux times compared to VBL in cells with an efflux time of zero. In FIGS. 3a and 3b, efflux is expressed as pmol VBL. In FIGS. 3c and 3d, efflux is expressed as percentage of VBL levels at time zero.

[7] = system: MCF7/ADR human breast adenocarcinoma cells; test: flow cytometry P-glycoprotein function assay of doxorubicin efflux, MCF7/ADR (doxorubicin resistant); assay type: cell-based
Description: The following tests were preformed to determine the effect of NDGA on efflux of doxorubicin (hereinafter sometimes referred to as DOX) for doxorubicin sensitive MCF7/0 and doxorubicin resistant MCF7/ADR human breast adenocarcinoma cells in vitro.
The cells were exposed to 50 μg/ml NDGA for 24 hrs prior to loading with DOX (doxorubicin) at 37° C. […] PBS. Flow analysis of cell efflux of DOX was collected over 30 minutes using the time parameter.
Procedure for P-Glycoprotein (PGP) Function Assay of Doxorubicin Efflux is shown hereunder.
1. […] Store at room temperature.
2. Doxorubicin (GFW=580) Make a solution of doxorubicin to contain 10 μg/ml. Store frozen at 0° C.
4. NDGA (MW=302.36) Make a solution of NDGA to contain 50 μg/ml. Store frozen at 0° C.
5. MCF7/0 (Doxorubicin sensitive) and MCF7/ADR (Doxorubicin resistant), human breast adenocarcinoma cell lines.
1. Make up 2×10^6 cells per ml in PBS. Expose 1 ml of cells to 50 μg of NDGA for 24 hrs at 37° C. prior to loading with Doxorubicin.
2. Add 1 ml of 10 μg/ml doxorubicin, mix and divide into two aliquots.
4. Incubate both tubes at 37° C. for 30 minutes.
5. Centrifuge the tubes at 37° C. for 5 minutes on a fast spin to pellet cells. Resuspend in 1 ml of buffer.
6. Run immediately on the flow cytometer. Excitation 488 nm, emission 560-600 nm. Collect forward and 90° side scatter and PMT4 linear scale. Collect 10,000-50,000 events and calculate the mean channel fluorescence (MCF) for PMT4.
7. Run both samples as close together as possible, and avoid prolonged exposure to room temperature.

[8] = stability to oxidation; assay type: physicochemical; conditions: for example, by air
Source text: The pH of the formulation is important in assuring stability of NDGA or its analogue as well as assuring that the formulation is physiologically acceptable to the patient. […] Such oxidation can result in discoloration of the formulation rendering it unacceptable for pharmaceutical use. […] Therefore, it is preferred that if the formulation is to be exposed to oxidizing conditions the pH to be maintained below about 7 and preferably below about 6 in order to provide maximum stability for the compound against oxidation. However, if the oxidizing conditions can be avoided, for example, by storage of the formulation under an inert atmosphere such as nitrogen, a higher pH can be used. The pH of the formulation may be maintained through the use of toxicologically-acceptable buffers. Such buffers are well-known in the pharmaceutical formulation art, and include hydrochloric acid buffer, acid phthalate buffer, phosphate buffer and citric acid/sodium citrate buffer.

## C[C@H](Cc1ccc(O)c(O)c1)[C@@H](C)Cc1ccc(O)c(O)c1 [Masoprocol, meso-1,4-bis (3,4-dihydroxyphenyl)-2,3-dimethylbutane]
[1]
  toxicity to normal cells versus doxorubicin: less toxic than doxorubicin
[2]
  IC50: 66.8 µM
[3]; 1 h, One Hour Pulse Treatment
  IC50: 211 µM
[3]; Continuous Drug Exposure, observation at 70 hours
  IC50: 53.4 µM
[4]
  effect on VBL cytotoxicity / colony formation: increase in the cytotoxicity of VBL; also recorded: increases the cytotoxic effect of VBL
[5]; 50 μM masoprocol
  steady state accumulation of VBL, compared with verapamil: comparable to that of 10 μM verapamil
[5]; one hour, masoprocol with [3H]VBL
  steady state accumulation of VBL: dose-dependent increase in the steady state accumulation of VBL; also recorded: increases the steady state accumulation of VBL
[6]
  modulation of VBL efflux: does not modulate VBL efflux
[6]; 2 hours, FIG. 3a
  VBL levels at efflux time zero: higher in masoprocol-treated cells
[6]; FIG. 3c
  percent of VBL retained at various efflux time points: not affected by masoprocol treatment
[6]; listed as masoprocol
  modulation of VBL efflux: does not influence the rate of efflux of VBL
[7]; Homo sapiens, NCI/ADR-RES, 24 h, read-out: % DOX increase w/NDGA
  activation at 50 µg/mL: 25.6%
[7]; resistant cells, listed as NDGA
  DOX loading / retention / efflux (in words): augmentation of DOX retention; also recorded: will inhibit the efflux of DOX
[8]
  susceptibility to oxidation: susceptible to oxidation
